Experimental data published in US8362000B2, “Azetidinyl diamides as monoacylglycerol lipase inhibitors” (Janssen Pharmaceutica NV, priority 2009, dated 2013).
Residue numbers refer to the chain shown, from its start. Like-named read-outs stand apart in the source and are kept apart here.

Legend:
MGL = biological target: T1, MGL (Rattus norvegicus, UniProt Q8R431); experiment: 2-AG accumulation assay in rat brain homogenate; type: biochemical; details: rat brain homogenate, 2-AG accumulation as percent of vehicle; for 2-AG accumulation, % of vehicle control at 1 µM: compound 1 μM, read-out: Rat Brain 2AG % VehCntrl (%) @ 1 μM
T1 construct: one g rat brain was homogenized using a Polytron homogenizer; from tissue; host or cells: rat brain homogenate
T1 sequence (Q8R431 1-303): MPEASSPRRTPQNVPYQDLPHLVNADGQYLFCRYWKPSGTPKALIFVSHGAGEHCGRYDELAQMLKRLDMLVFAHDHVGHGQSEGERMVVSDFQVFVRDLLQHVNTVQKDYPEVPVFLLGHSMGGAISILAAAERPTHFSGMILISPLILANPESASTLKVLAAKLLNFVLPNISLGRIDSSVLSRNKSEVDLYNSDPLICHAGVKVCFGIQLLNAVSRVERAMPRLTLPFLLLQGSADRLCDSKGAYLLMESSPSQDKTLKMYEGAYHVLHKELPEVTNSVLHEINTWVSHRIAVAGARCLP

mutant MGL = biological target: T2, mutant MGL (Homo sapiens, UniProt Q99685, L169S/L176S); experiment: MGL ThermoFluor assay - mutant; type: binding
T2 sequence (Q99685 1-303 L169S/L176S): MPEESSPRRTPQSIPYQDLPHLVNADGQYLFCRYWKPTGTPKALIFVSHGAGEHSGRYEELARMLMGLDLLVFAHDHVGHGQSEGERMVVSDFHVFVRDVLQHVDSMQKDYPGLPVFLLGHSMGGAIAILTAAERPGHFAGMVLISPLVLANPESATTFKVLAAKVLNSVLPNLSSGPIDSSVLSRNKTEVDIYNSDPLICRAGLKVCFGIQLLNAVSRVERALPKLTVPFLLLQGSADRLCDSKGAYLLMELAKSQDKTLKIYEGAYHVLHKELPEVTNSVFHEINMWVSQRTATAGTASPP

[1] = biological target: T3, purified wild type MGL (wt-MGLL 6H-11-313) (Homo sapiens, UniProt Q99685)
T3 sequence (Q99685 1-303): T2 sequence (Q99685 1-303 L169S/L176S) with S169L, S176L

[2] = ThermoFluor, compound concentration measured by qNMR, read-out: MGL mutant ThermoFluor qKd (using qNMR conc.)
[3] = ThermoFluor concentration-response, read-out: MGL mutant ThermoFluor Kd
[4] = ThermoFluor, compound concentration measured by qNMR, read-out: MGL mutant ThermoFluor qKd (μM) (using qNMR conc.)
[5] = ThermoFluor thermal stability binding assay, read-out: MGL mutant ThermoFluor Kd

| SMILES | 2-AG accumulation, % of vehicle control at 1 µM (MGL) [%] | Kd (mutant MGL; [2]) [µM] | IC50 [1] [nM] | Kd (mutant MGL; [3]) [µM] | Kd (mutant MGL; compound concentration measured by qNMR, read-out: MGL mutant ThermoFluor qKd (using qNMR conc.)) [µM] | Kd (mutant MGL; [4]) [µM] | 2-AG accumulation, % of vehicle control at 10 µM (MGL; compound 10 μM, read-out: Rat Brain 2AG % VehCntrl (%) @ 10 μM) [%] | Kd (mutant MGL; [5]) [µM] |
| --- | --- | --- | --- | --- | --- | --- | --- | --- |
| O=C(c1ccc2c(ccn2-c2ccc(C(F)(F)F)nc2)c1)N1CC(N2CCN(C(=O)c3nccs3)CC2)C1 [Cpd 1312, 5-({3-[4-(1,3-Thiazol-2-ylcarbonyl)piperazin-1-yl]azetidin-1-yl}carbonyl)-1-[6-(trifluoromethyl)pyridin-3-yl]-1H-indole] | 963 | 0.008 | < 5 | – | – | – | – | – |
| O=C(c1cc(-c2ccccc2)cc(C(F)(F)F)c1)N1CC(N2CCN(C(=O)c3cscn3)CC2)C1 [Cpd 1259] | 159 | – | 847 | 0.667 | – | – | – | – |
| C/C(=C\c1ccc(Cl)cc1)c1c(C)c(C(=O)N2CC(N3CCN(C(=O)C(F)(F)F)CC3)C2)nn1-c1ccc(Cl)cc1Cl [Cpd 1012] | 173 | – | 13 | – | 3.34 | – | – | – |
| Cc1ccc(-n2ccc3cc(C(=O)N4CC(N5CCN(C(=O)C(F)(F)F)CC5)C4)ccc32)nc1 [Cpd 1184, 1-(5-Methylpyridin-2-yl)-5-({3-[4-(trifluoroacetyl)piperazin-1-yl]azetidin-1-yl}carbonyl)-1H-indole] | 401 | 0.244 | 86 | – | – | – | – | – |
| Cc1cn(-c2ccccc2)c2ccc(C(=O)N3CC(N4CCN(C(=O)c5ccccc5)CC4)C3)cc12 [Cpd 577] | 207 | – | 52 | – | – | 0.026 | – | – |
| O=C(c1nccs1)N1CCN(C2CN(C(=O)c3cccc(-c4ccccc4)c3F)C2)CC1 [Cpd 1172] | 931 | – | 63 | 0.178 | – | – | – | – |
| O=C(c1csc(-c2cc(Cl)cc(Cl)c2)n1)N1CC(N2CCN(C(=O)c3nccs3)CC2)C1 [Cpd 158, 1-(1-{[2-(3,5-Dichlorophenyl)-1,3-thiazol-4-yl]carbonyl}azetidin-3-yl)-4-(1,3-thiazol-2-ylcarbonyl)piperazine] | 126 | – | 657 | 0.476 | – | – | 213 | – |
| O=C(c1ccc(Oc2ccc(Br)cn2)cc1)N1CC(N2CCN(C(=O)c3nccs3)CC2)C1 [Cpd 877] | 475 | – | < 5 | 0.1 | – | – | – | – |
| O=C(c1ccc(-c2ccccc2)cc1)N1CCN(C2CN(C(=O)c3ncco3)C2)CC1 [Cpd 1283, 1-(Biphenyl-4-ylcarbonyl)-4-[1-(1,3-oxazol-2-ylcarbonyl)azetidin-3-yl]piperazine] | 62 | – | 2170 | 0.523 | – | – | – | – |
| O=C(c1ccc2c(c1)CCN(Cc1ccccc1)C2)N1CC(N2CCN(C(=O)c3nccs3)CC2)C1 [Cpd 680, 2-Benzyl-6-({3-[4-(1,3-thiazol-2-ylcarbonyl)piperazin-1-yl]azetidin-1-yl}carbonyl)-1,2,3,4-tetrahydroisoquinoline] | 356 | – | 25 | – | – | – | – | 0.053 |
| NC(=O)c1cccc(-n2ccc3cc(C(=O)N4CC(N5CCN(C(=O)c6nccs6)CC5)C4)ccc32)c1 [Cpd 1177] | 895 | – | 63 | – | – | 0.088 | – | – |
| CCCCCCCc1ccc(C(=O)N2CC(N3CCN(C(=O)c4nccs4)CC3)C2)cc1 [Cpd 892] | 948 | – | < 5 | 0.007 | – | – | – | – |
| O=C(c1ccccc1)N1CCN(C2CN(C(=O)c3ccc4c(ccn4-c4cc(F)cc(F)c4)c3)C2)CC1 [Cpd 580] | 179 | – | 69 | – | – | 0.118 | – | – |
| O=C(c1ccc2c(ccn2-c2ccc(Cl)cn2)c1)N1CC(N2CCN(C(=O)c3nccs3)CC2)C1 [Cpd 1313, 1-(5-Chloropyridin-2-yl)-5-({3-[4-(1,3-thiazol-2-ylcarbonyl)piperazin-1-yl]azetidin-1-yl}carbonyl)-1H-indole] | 851 | 0.001 | < 5 | 0.003 | – | – | – | – |
| O=C(c1ccccc1)N1CCc2cc(C(=O)N3CC(N4CCN(C(=O)c5nccs5)CC4)C3)ccc2C1 [Cpd 736] | 499 | – | 273 | – | – | – | – | 0.067 |
| O=C(c1ccccc1)N1CCN(C2CN(C(=O)c3ccc(OCc4ccc(Cl)s4)cc3)C2)CC1 [Cpd 972] | 683 | – | 23 | – | – | – | – | 0.08 |
| CCCCCc1ccc(C(=O)N2CC(N3CCN(C(=O)c4nccs4)CC3)C2)cc1 [Cpd 893] | 626 | – | < 5 | 0.005 | – | – | – | – |
| O=C(c1ccc(-c2nc(-c3ccccc3)cs2)cc1)N1CC(N2CCN(C(=O)c3nccs3)CC2)C1 [Cpd 1326] | 944 | – | < 5 | 0.004 | – | – | – | – |
| O=C(c1cscn1)N1CC(N2CCN(C(=O)c3cc4cc(C(F)(F)F)ccc4s3)CC2)C1 [Cpd 716, 1-[1-(1,3-Thiazol-4-ylcarbonyl)azetidin-3-yl]-4-{[5-(trifluoromethyl)-1-benzothiophen-2-yl]carbonyl}piperazine] | 326 | – | 140 | 0.04 | – | – | – | – |
| Cc1c(C(=O)N2CC(N3CCN(C(=O)c4nccs4)CC3)C2)sc2ccc(-c3ccccc3)cc12 [Cpd 1346, 1-{1-[(3-Methyl-5-phenyl-1-benzothiophen-2-yl)carbonyl]azetidin-3-yl}-4-(1,3-thiazol-2-ylcarbonyl)piperazine] | 406 | – | < 5 | 0.002 | – | – | – | – |
| O=C(c1ccc(-c2ccc(C(F)(F)F)s2)cc1)N1CC(N2CCN(C(=O)c3ccc[nH]3)CC2)C1 [Cpd 1138] | 271 | – | 26 | 0.018 | – | – | – | – |
| O=C(c1nccs1)N1CCN(C2CN(C(=O)C3CCC(c4ccc(Cl)cc4)CC3)C2)CC1 (centres unmarked) [Cpd 637] | 272 | – | 41 | 0.053 | – | – | – | – |
| O=C(c1cccc(-c2cccc(C(F)(F)F)c2)c1)N1CC(N2CCN(C(=O)c3cscn3)CC2)C1 [Cpd 1188] | 187 | – | 94 | 0.855 | – | – | – | – |
| O=C(c1ccc(-c2cccc(C(F)(F)F)c2)cc1)N1CCN(C2CN(C(=O)c3ccc[nH]3)C2)CC1 [Cpd 1166, 1-[1-(1H-Pyrrol-2-ylcarbonyl)azetidin-3-yl]-4-{[3′-(trifluoromethyl)biphenyl-4-yl]carbonyl}piperazine] | 176 | – | 52 | 0.01 | – | – | – | – |
| O=C(c1ccc(-c2ccc(C(F)(F)F)s2)cc1)N1CCN(C2CN(C(=O)c3nccs3)C2)CC1 [Cpd 1161] | 459 | – | 46 | 0.025 | – | – | – | – |
| Cc1cc(C(=O)N2CC(N3CCN(C(=O)c4ccns4)CC3)C2)ccc1-c1cccc(C(F)(F)F)c1 [Cpd 1114, 1-(Isothiazol-5-ylcarbonyl)-4-(1-{[2-methyl-3′-(trifluoromethyl)biphenyl-4-yl]carbonyl}azetidin-3-yl)piperazine] | 293 | – | 16 | 0.049 | – | – | – | – |
| O=C(c1nccs1)N1CCN(C2CN(C(=O)c3cccc4oc(-c5ccccc5Cl)nc34)C2)CC1 [Cpd 1173] | 133 | – | 65 | – | – | – | – | 0.007 |
| Cc1c(C(=O)N2CC(N3CCN(C(=O)c4ccccc4)CC3)C2)sc2ccc(-c3ccccc3)cc12 [Cpd 570, 1-{1-[(3-Methyl-5-phenyl-1-benzothiophen-2-yl)carbonyl]azetidin-3-yl}-4-(phenylcarbonyl)piperazine] | 210 | – | 22 | 0.03 | – | – | – | – |
| O=C(c1cscn1)N1CCN(C2CN(C(=O)c3cccc4nc(-c5cccc(F)c5)oc34)C2)CC1 [Cpd 1254] | 187 | – | 765 | – | – | – | – | 0.1 |
| Cc1cc(-c2ccccc2)ccc1C(=O)N1CC(N2CCN(C(=O)c3nccs3)CC2)C1 [Cpd 1074, 1-{1-[(3-Methylbiphenyl-4-yl)carbonyl]azetidin-3-yl}-4-(1,3-thiazol-2-ylcarbonyl)piperazine] | 303 | – | 8 | 0.011 | – | – | – | – |
